From article PMC6480704, “Antiproliferative Aspidosperma-Type Monoterpenoid Indole Alkaloids from Bousigonia mekongensis Inhibit Tubulin Polymerization” (Molecules, 2019)
Where two headings read alike, the source gives them in different places.

Legend:
[1] = tested on: MCF-7 (estrogen receptor-positive breast cancer); assay: Antiproliferative SRB assay, MCF-7; assay type: cell-based; conditions: Homo sapiens, read-out: IC50 MCF-7
Method: (§1) We tested the fourteen known aspidosperma-type alkaloids (1–14) against chemosensitive KB (originally isolated from epidermoid carcinoma of the nasopharynx) and P-gp over-expressing multidrug-resistant (MDR) KB subline KB-VIN, as well as three additional human cancer cell lines, A549 (lung carcinoma), MDA-MB-231 (triple negative breast cancer), and MCF-7 (estrogen receptor-positive breast cancer), using a sulforhodamine B (SRB) assay (Table 1).
(§2) Antiproliferative activity was determined by the sulforhodamine B (SRB) colorimetric assay as previously described. In brief, human tumor cell lines were cultured in RPMI-1640 medium containing 2 mM l-glutamine and 25 mM HEPES (Gibco), supplemented with 10% fetal bovine serum (Speciality Media), 100 µg/mL streptomycin, 100 IU/mL penicillin, and 0.25 µg/mL amphotericin B (Corning). MDR stock cells (KB-VIN) were maintained in the presence of 100 nM vincristine (VIN) (Sigma-Aldrich, Saint Louis, MI, USA).
(§3) Freshly trypsinized cell suspensions were seeded in 96-well microtiter plates at densities of 4000–11,000 cells per well (based on the cell lines) with compounds. After 72 h in culture with test compounds, cells were fixed in 10% trichloroacetic acid followed by staining with 0.04% sulforhodamine B (Sigma-Aldrich). The bound SRB was solubilized in 10 mM Tris-base and the absorbance at 515 nm was measured using a Microplate Reader (ELx800, Bio-Tek Instruments, Winooski, VT, USA) operated by Gen5 software (BioTek) after solubilizing the protein-bound dye with 10 mM Tris base. The mean IC50 is the concentration of agent that reduced cell growth by 50% compared with vehicle (DMSO) control under the experimental conditions and is the average from at least three independent experiments with duplicate samples.
(§4) The following human tumor cell lines were used in the assay: A549 (lung carcinoma), MDA-MB-231 (triplen-egative breast cancer), KB (originally isolated from epidermoid carcinoma of the nasopharynx), KB-VIN (VIN-resistant KB subline showing MDR phenotype by overexpressing P-gp), MCF-7 (estrogen receptor (ER)-positive, HER2-negative breast cancer). […] All cell lines were obtained from the Lineberger Comprehensive Cancer Center (UNC-CH) or from ATCC (Manassas, VA), except KB-VIN, which was a generous gift from Professor Y.-C. Cheng (Yale University). Paclitaxel was purchased from Sigma-Aldrich.

[2] = tested on: MDA-MB-231 (triple negative breast cancer); assay: Antiproliferative SRB assay, MDA-MB-231; assay type: cell-based; conditions: Homo sapiens, MDA-MB-231, SRB assay, 72 h, read-out: IC50 MDA-MB-231
Method: as §1, §2, §3, §4

[3] = tested on: A549, MDA-MB-231, KB, KB-VIN, and MCF-7; assay: Antiproliferative SRB assay, values stated across several cell lines; assay type: cell-based, human; conditions: for antiproliferative activity (in words): five human tumor cell lines including MDR subline KB-VIN
Method: as §1, §2, §3, §4

A549 (lung carcinoma) = assay: Antiproliferative SRB assay, A549; assay type: cell-based; conditions: Homo sapiens, A549, SRB assay, 72 h, read-out: IC50 A549
Method: as §1, §2, §3, §4

[4] = tested on: KB (originally isolated from epidermoid carcinoma of the nasopharynx); assay: Antiproliferative SRB assay, KB; assay type: cell-based; conditions: Homo sapiens, SRB assay, 72 h, read-out: IC50 KB
Method: as §1, §2, §3, §4

[5] = tested on: KB-VIN (VIN-resistant KB subline showing MDR phenotype by overexpressing P-gp); assay: Antiproliferative SRB assay, KB-VIN; conditions: for IC50: Homo sapiens, KBVIN, 72 h, read-out: IC50 KB-VIN; for fold higher concentration required against KB-VIN cells: KB-VIN compared with chemosensitive cells
Method: as §1, §2, §3, §4

KB-VIN cells = assay: Immunofluorescence staining of α-tubulin, pH3 and DNA; assay type: cell-based, human; conditions: 24 h, 3 × IC50
Method: Figure 2 Mitotic defects in KB-VIN cells treated by compounds. […] Cell cycle distributions (sub-G1, G1, S, G2/M) were analyzed using flow cytometry after staining cells with propidium iodide (PI). […] Fixed cells were stained with antibodies to α-tubulin (green) and phospho-histone H3 (pH3, red), and DAPI was used for DNA (blue). Stained cells were observed by confocal fluorescence microscope. The represented image is a projection of 15~20 optical sections acquired at 0.5~1 µm intervals. […] Bar, 0.025 mm. Additional images are available in Supplementary Figure S1.
To determine whether the cell cycle arrest was due to an antimicrotubule effect, cells treated with compounds were analyzed by immunocytochemistry using antibodies to α-tubulin for microtubules and mitotic spindles, Ser10-phosphorylated histone H3 (pH3) for the condensed chromatins and 4′,6-diamidino-2-phenylindole (DAPI) for DNA. […] Thus, we concluded that these alkaloids are tubulin polymerization inhibitors.
Immunocytochemical analysis was performed as previously described. […] After treatment of cells with the agent for 24 h, cells were fixed with 4% paraformaldehyde in PBS and permeabilized with 0.5% Triton X-100 in PBS. Fixed cells were labeled with mouse monoclonal antibody to α-tubulin (B5-1-2, Sigma) and rabbit IgG to Ser10-phosphorylated histone H3 (p-H3) (#06570, EMD Millipore), followed by FITC-conjugated antibody to mouse IgG (Sigma) and Alexa Fluor 549-conjugated antibody to rabbit IgG (Life Technologies). Nuclei were labeled with DAPI (Sigma). Fluorescently-labeled cells were observed using a confocal microscope (Zeiss, LSM700) with ZEN (black edition) software (Zeiss). The 15~20 optical sections acquired at 0.5~1 µm intervals were stacked and reconstructed using ZEN (black edition) software. Experiments were repeated at least twice for each compound. Final images were prepared using Adobe Photoshop CS3.

[6] = MCF7, SRB assay, 72 h, positive controls, unit nM

SMILES | IC50 ([1]; MCF7, SRB assay, 72 h) [nM] | IC50 [2] [nM] | antiproliferative activity (in words) [3] | IC50 (A549 (lung carcinoma)) [nM] | IC50 [4] [nM] | IC50 [5] [µM] | IC50 ([3]; five human tumor cell lines, read-out: IC50 range over the cell lines tested) [µM] | IC50 ([1]; MCF7, 72 h) [nM] | IC50 [1, 6] [nM] | IC50 ([2]; positive controls, unit nM) [nM] | IC50 (A549 (lung carcinoma); positive controls, unit nM) [nM] | IC50 ([4]; positive controls, unit nM) [nM] | fold higher concentration required against KB-VIN cells [5] [fold] | microtubule / mitotic spindle morphology (KB-VIN cells)
COC(=O)C1=C2Nc3ccccc3C23CCN2CC=CC(C(C)O)(C1)C23 [Compound 10, 19-(R)-hydroxytabersonine] | > 40000 | > 40000 | essentially inactive | > 40000 | > 40000 | > 40 | – | – | – | – | – | – | – | –
COC(=O)C1=C2Nc3ccccc3C23CCN2CC=CC(C(C)OC(C)=O)(C1)C23 [Compound 11, 19-(R)-acetoxytabersonine] | > 40000 | > 40000 | essentially inactive | > 40000 | 26500 ± 2500 | > 40 | > 26.5 | – | – | – | – | – | – | –
CC[C@]12C=CCN3CC[C@]4(C(=C(C(=O)OC)C1)Nc1cc(OC)ccc14)[C@@H]32 [Compound 12, 11-methoxytabersonine] | – | 6800 ± 1100 | exhibited antiproliferative activity against all cell lines | 5200 ± 100 | 5400 ± 400 | 5.8 ± 0.1 | – | 8200 ± 900 | – | – | – | – | – | –
COC(=O)C1=C2Nc3cc(OC)ccc3C23CCN2CC=CC(C(C)OC(C)=O)(C1)C23 [Compound 14, 19-(R)-acetoxy-11-methoxytabersonine] | > 40000 | > 40000 | essentially inactive | > 40000 | > 40000 | > 40 | – | – | – | – | – | – | – | –
CC(=O)O[C@H]1C(=O)[C@@]2(C)[C@H]([C@H](OC(=O)c3ccccc3)[C@]3(O)C[C@H](OC(=O)[C@H](O)[C@@H](NC(=O)c4ccccc4)c4ccccc4)C(C)=C1C3(C)C)[C@]1(OC(C)=O)CO[C@@H]1C[C@@H]2O [PXL, paclitaxel, reference compound] | – | – | – | – | – | 2.36 ± 0.0595 | – | – | 8.8 ± 1 | 7 ± 0.9 | 4.5 ± 0.9 | 3.7 ± 1.1 | 600 | –
CC[C@]1(O)C[C@H]2CN(CCc3c([nH]c4ccccc34)[C@@](C(=O)OC)(c3cc4c(cc3OC)N(C=O)[C@H]3[C@@](O)(C(=O)OC)[C@H](OC(C)=O)[C@]5(CC)C=CCN6CC[C@]43[C@@H]65)C2)C1 [VIN, vincristine, reference compound] | – | – | – | – | – | 2.48 ± 0.0282 | – | – | 7.3 ± 0.2 | 32 ± 0.5 | 22.9 ± 2.4 | 4.4 ± 0.1 | 600 | with multipolar spindles
